Results as given in the NIST ThermoML archive (doi:10.1021/je800786k).
Numbers after ± are expanded uncertainties.

Conditions: Liquid, Vibrating tube method

CCC(C)N (configuration not stated) [2-butanamine]
Conditions	mass density [kg/m3]
293.15 K, 100 kPa	725.3 ± 1.1
293.15 K, 10000 kPa	733.6 ± 1.1
293.15 K, 20000 kPa	741.2 ± 1.1
293.15 K, 30000 kPa	748.1 ± 1.1
293.15 K, 40000 kPa	754.5 ± 1.1
293.15 K, 50000 kPa	760.4 ± 1.2
293.15 K, 60000 kPa	766.1 ± 1.2
293.15 K, 70000 kPa	771.3 ± 1.2
293.15 K, 80000 kPa	776.3 ± 1.3
293.15 K, 90000 kPa	781.1 ± 1.3
293.15 K, 100000 kPa	785.5 ± 1.3
293.15 K, 110000 kPa	789.7 ± 1.4
293.15 K, 120000 kPa	793.9 ± 1.4
293.15 K, 130000 kPa	797.8 ± 1.4
293.15 K, 140000 kPa	801.5 ± 1.5
303.15 K, 100 kPa	715.1 ± 1.1
303.15 K, 10000 kPa	724.3 ± 1.1
303.15 K, 20000 kPa	732.4 ± 1.1
303.15 K, 30000 kPa	739.7 ± 1.1
303.15 K, 40000 kPa	746.3 ± 1.1
303.15 K, 50000 kPa	752.5 ± 1.2
303.15 K, 60000 kPa	758.3 ± 1.2
303.15 K, 70000 kPa	763.7 ± 1.2
303.15 K, 80000 kPa	768.9 ± 1.3
303.15 K, 90000 kPa	773.8 ± 1.3
303.15 K, 100000 kPa	778.4 ± 1.4
303.15 K, 110000 kPa	782.9 ± 1.4
303.15 K, 120000 kPa	787.2 ± 1.4
303.15 K, 130000 kPa	791.2 ± 1.5
303.15 K, 140000 kPa	795.2 ± 1.5
313.15 K, 100 kPa	705 ± 1.1
313.15 K, 10000 kPa	714.8 ± 1.1
313.15 K, 20000 kPa	723.4 ± 1.1
313.15 K, 30000 kPa	731.1 ± 1.1
313.15 K, 40000 kPa	738.2 ± 1.1
313.15 K, 50000 kPa	744.7 ± 1.2
313.15 K, 60000 kPa	750.8 ± 1.2
313.15 K, 70000 kPa	756.5 ± 1.3
313.15 K, 80000 kPa	761.9 ± 1.3
313.15 K, 90000 kPa	767 ± 1.3
313.15 K, 100000 kPa	771.8 ± 1.4
313.15 K, 110000 kPa	776.4 ± 1.4
313.15 K, 120000 kPa	780.8 ± 1.5
313.15 K, 130000 kPa	785.1 ± 1.5
313.15 K, 140000 kPa	789.1 ± 1.5
323.15 K, 100 kPa	694.7 ± 1.1
323.15 K, 10000 kPa	705.4 ± 1.1
323.15 K, 20000 kPa	714.5 ± 1.1
323.15 K, 30000 kPa	722.8 ± 1.1
323.15 K, 40000 kPa	730.4 ± 1.2
323.15 K, 50000 kPa	737.2 ± 1.2
323.15 K, 60000 kPa	743.6 ± 1.2
323.15 K, 70000 kPa	749.5 ± 1.3
323.15 K, 80000 kPa	755.2 ± 1.3
323.15 K, 90000 kPa	760.4 ± 1.3
323.15 K, 100000 kPa	765.4 ± 1.4
323.15 K, 110000 kPa	770.2 ± 1.4
323.15 K, 120000 kPa	774.7 ± 1.5
323.15 K, 130000 kPa	779 ± 1.5
323.15 K, 140000 kPa	783.2 ± 1.6
333.15 K, 10000 kPa	695.4 ± 1.1
333.15 K, 20000 kPa	705.2 ± 1.1
333.15 K, 30000 kPa	714 ± 1.1
333.15 K, 40000 kPa	722 ± 1.2
333.15 K, 50000 kPa	729.2 ± 1.2
333.15 K, 60000 kPa	735.8 ± 1.2
333.15 K, 70000 kPa	742.1 ± 1.3
333.15 K, 80000 kPa	748 ± 1.3
333.15 K, 90000 kPa	753.4 ± 1.4
333.15 K, 100000 kPa	758.6 ± 1.4
333.15 K, 110000 kPa	763.5 ± 1.5
333.15 K, 120000 kPa	768.1 ± 1.5
333.15 K, 130000 kPa	772.5 ± 1.5
333.15 K, 140000 kPa	776.9 ± 1.6
343.15 K, 10000 kPa	685.9 ± 1.1
343.15 K, 20000 kPa	696.6 ± 1.1
343.15 K, 30000 kPa	706 ± 1.2
343.15 K, 40000 kPa	714.3 ± 1.2
343.15 K, 50000 kPa	721.9 ± 1.2
343.15 K, 60000 kPa	728.8 ± 1.3
343.15 K, 70000 kPa	735.3 ± 1.3
343.15 K, 80000 kPa	741.3 ± 1.3
343.15 K, 90000 kPa	747.1 ± 1.4
343.15 K, 100000 kPa	752.4 ± 1.4
343.15 K, 110000 kPa	757.4 ± 1.5
343.15 K, 120000 kPa	762.3 ± 1.5
343.15 K, 130000 kPa	767 ± 1.6
343.15 K, 140000 kPa	771.3 ± 1.6
353.15 K, 10000 kPa	675.8 ± 1.1
353.15 K, 20000 kPa	687.1 ± 1.1
353.15 K, 30000 kPa	697.2 ± 1.2
353.15 K, 40000 kPa	705.8 ± 1.2
353.15 K, 50000 kPa	714 ± 1.2
353.15 K, 60000 kPa	721.2 ± 1.3
353.15 K, 70000 kPa	728 ± 1.3
353.15 K, 80000 kPa	734.2 ± 1.4
353.15 K, 90000 kPa	740.1 ± 1.4
353.15 K, 100000 kPa	745.7 ± 1.4
353.15 K, 110000 kPa	751 ± 1.5
353.15 K, 120000 kPa	756 ± 1.5
353.15 K, 130000 kPa	760.7 ± 1.6
353.15 K, 140000 kPa	765.3 ± 1.6
363.15 K, 10000 kPa	665.7 ± 1.2
363.15 K, 20000 kPa	678 ± 1.2
363.15 K, 30000 kPa	688.5 ± 1.2
363.15 K, 40000 kPa	697.8 ± 1.2
363.15 K, 50000 kPa	706.2 ± 1.2
363.15 K, 60000 kPa	713.9 ± 1.3
363.15 K, 70000 kPa	721 ± 1.3
363.15 K, 80000 kPa	727.5 ± 1.4
363.15 K, 90000 kPa	733.6 ± 1.4
363.15 K, 100000 kPa	739.4 ± 1.5
363.15 K, 110000 kPa	744.8 ± 1.5
363.15 K, 120000 kPa	749.9 ± 1.6
363.15 K, 130000 kPa	754.8 ± 1.6
363.15 K, 140000 kPa	759.5 ± 1.7
373.15 K, 10000 kPa	655.5 ± 1.2
373.15 K, 20000 kPa	668.9 ± 1.2
373.15 K, 30000 kPa	680.1 ± 1.2
373.15 K, 40000 kPa	690 ± 1.2
373.15 K, 50000 kPa	698.2 ± 1.3
373.15 K, 60000 kPa	707 ± 1.3
373.15 K, 70000 kPa	714 ± 1.3
373.15 K, 80000 kPa	720.9 ± 1.4
373.15 K, 90000 kPa	727.2 ± 1.4
373.15 K, 100000 kPa	733.2 ± 1.5
373.15 K, 110000 kPa	738.7 ± 1.5
373.15 K, 120000 kPa	744 ± 1.6
373.15 K, 130000 kPa	749.1 ± 1.6
373.15 K, 140000 kPa	753.9 ± 1.7
383.15 K, 10000 kPa	645.5 ± 1.2
383.15 K, 20000 kPa	659.9 ± 1.2
383.15 K, 30000 kPa	671.9 ± 1.2
383.15 K, 40000 kPa	682.3 ± 1.2
383.15 K, 50000 kPa	691.4 ± 1.3
383.15 K, 60000 kPa	699.6 ± 1.3
383.15 K, 70000 kPa	707.3 ± 1.4
383.15 K, 80000 kPa	714.4 ± 1.4
383.15 K, 90000 kPa	720.8 ± 1.5
383.15 K, 100000 kPa	726.9 ± 1.5
383.15 K, 110000 kPa	732.7 ± 1.6
383.15 K, 120000 kPa	738.2 ± 1.6
383.15 K, 130000 kPa	743.3 ± 1.7
383.15 K, 140000 kPa	748.2 ± 1.7
393.15 K, 10000 kPa	634.9 ± 1.2
393.15 K, 20000 kPa	650.5 ± 1.2
393.15 K, 30000 kPa	663.1 ± 1.2
393.15 K, 40000 kPa	674.3 ± 1.2
393.15 K, 50000 kPa	684.3 ± 1.3
393.15 K, 60000 kPa	693 ± 1.3
393.15 K, 70000 kPa	700.9 ± 1.4
393.15 K, 80000 kPa	708.2 ± 1.4
393.15 K, 90000 kPa	714.9 ± 1.5
393.15 K, 100000 kPa	721.2 ± 1.5
393.15 K, 110000 kPa	727.2 ± 1.6
393.15 K, 120000 kPa	732.8 ± 1.6
393.15 K, 130000 kPa	738.1 ± 1.7
393.15 K, 140000 kPa	742.9 ± 1.7
403.15 K, 10000 kPa	623.9 ± 1.2
403.15 K, 20000 kPa	640.6 ± 1.2
403.15 K, 30000 kPa	654.5 ± 1.2
403.15 K, 40000 kPa	666.1 ± 1.3
403.15 K, 50000 kPa	676.3 ± 1.3
403.15 K, 60000 kPa	685.3 ± 1.3
403.15 K, 70000 kPa	693.6 ± 1.4
403.15 K, 80000 kPa	701.1 ± 1.4
403.15 K, 90000 kPa	708.2 ± 1.5
403.15 K, 100000 kPa	714.9 ± 1.5
403.15 K, 110000 kPa	721.1 ± 1.6
403.15 K, 120000 kPa	726.9 ± 1.6
403.15 K, 130000 kPa	732.3 ± 1.7
403.15 K, 140000 kPa	737.4 ± 1.8
